Our source for the IC50 values is patent publication US10087172B2, “Compounds and their methods of use” (AGIOS PHARMACEUTICALS, INC, priority 2012, dated 2018).

The target in this assay is T1, glutaminase (GAC) (Homo sapiens, UniProt O94925).
T1 sequence (O94925 55-598 isoform O94925-3 limits assumed): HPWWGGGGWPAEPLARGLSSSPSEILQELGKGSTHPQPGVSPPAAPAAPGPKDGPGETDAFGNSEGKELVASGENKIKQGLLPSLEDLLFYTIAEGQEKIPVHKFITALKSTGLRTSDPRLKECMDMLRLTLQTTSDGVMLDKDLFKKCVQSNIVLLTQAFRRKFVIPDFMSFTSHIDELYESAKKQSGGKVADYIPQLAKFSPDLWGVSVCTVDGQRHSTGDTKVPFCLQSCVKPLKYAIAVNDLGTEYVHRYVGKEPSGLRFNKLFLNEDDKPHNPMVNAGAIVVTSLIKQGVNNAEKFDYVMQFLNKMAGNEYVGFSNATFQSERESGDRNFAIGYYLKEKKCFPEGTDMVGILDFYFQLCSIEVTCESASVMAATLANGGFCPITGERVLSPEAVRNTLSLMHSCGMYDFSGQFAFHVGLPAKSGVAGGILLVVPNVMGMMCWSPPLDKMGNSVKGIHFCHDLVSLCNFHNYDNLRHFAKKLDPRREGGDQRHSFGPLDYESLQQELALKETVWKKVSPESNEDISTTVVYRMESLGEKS
Kind of assay: Glutaminase (GAC) coupled endpoint enzymatic assay (glutamate dehydrogenase/diaphorase/resazurin, Ex544/Em590). In kind it is biochemical. To be noted: inhibition of glutaminase, tested in an assay of Example A or Example B; class symbols A-E. From the text: In certain embodiments, exemplary compounds of Formula I include the compounds described in Table 1 and in the Examples. A compound described herein may be tested for its ability to inhibit glutaminase, e.g., by an assay as described in the Examples. For simplicity, the inhibition activity of these compounds is represented as an IC50 tested in an assay of Example A or Example B in Table 1. […] “N/A” refers to compounds wherein the IC50 is unavailable.
In this example, the enzymatic activity of glutaminase is measured through a coupled endpoint assay. Glutamine and phosphate are supplied to GAC at a concentration equal to Km and AC50, respectively, and GAC concentration is adjusted to give a linear reaction for 60 minutes. The glutamate produced is converted to 2-OG by a kinetic excess of glutamate dehydrogenase. This second step is configured for 2× Km for NAD, since excess NAD is inhibitory. However, a kinetic excess of the third coupling enzyme, diaphorase, recycles NAD from NADH to keep the NAD concentration constant during the timecourse of the assay. Diaphorase, also supplied in kinetic excess, oxidizes NADH produced by GDH back to NAD with the concomitant reduction of rezasurin to the highly fluorescent resorufin. Resorufin in measured after the assay is stopped with SDS by Ex544/Em590. A reduction in the signal indicates inhibition of some component of the coupled enzyme system. Prospective hits are counterscreened against GDH/diaphorase alone to remove hits to the coupling enzyme system in a second assay.
2. Buffers 2× Buffer (300 mM NaCl, 100 mM HEPES pH 8.5, 0.1% BSA, 0.5 mM EDTA, 100 mM sodium phosphate pH 8.5) 5× Substrate Mix (1× Buffer final concentration, with 13 mM glutamine, 100 μM resazurin, 50 μg/ml diaphorase) 1.2× Enzyme Mix (1× Buffer final concentration, with 0.875 μg/ml GAC, 1.56 mM NAD, 6.25 units/ml GDH) Stop Mix (6% SDS in ddH2O) Reaction Procedure 1. Add 1 μl compound in 100% DMSO 2. Add 40 μl of Enzyme Mix and incubate for 60 minute at room temperature 3. Add 10 μl of Substrate Mix to start reaction 4. Stop reaction with 25 μl of 6% SDS and read Ex544 Em 590
`O=C(Cc1ccccn1)Nc1nnc([C@H]2CCC[C@H](c3nnc(NC(=O)[C@@H](O)c4ccccc4)s3)C2)s1` [Compound 376, (S)-2-hydroxy-2-phenyl-N-(5-((1S,3S)-3-(5-(2-(pyridin-2-yl)acetamido)-1,3,4-thiadiazol-2-yl)cyclohexyl)-1,3,4-thiadiazol-2-yl)acetamide] yielded an IC50 below 100 nM.

For the compound `O=C(/C=C/c1ccccn1)Nc1nnc([C@H]2CCC[C@H](c3nnc(NC(=O)/C=C/c4ccccn4)s3)C2)s1` [Compound 45, (2E,2′E)-N,N′-(5,5′-((1S,3S)-cyclohexane-1,3-diyl)bis(1,3,4-thiadiazole-5,2-diyl))bis(3-(pyridin-2-yl)acrylamide)], the IC50 lay within 100 to 500 nM. The value for `CN1CCC(c2cccc(CC(=O)Nc3nnc([C@H]4CCC[C@H](c5nnc(NC(=O)Cc6cccc(C7CCN(C)CC7)c6)s5)C4)s3)c2)CC1` [Compound 362, N,N′-(5,5′-((1S,3S)-cyclohexane-1,3-diyl)bis(1,3,4-thiadiazole-5,2-diyl))bis(2-(3-(1-methylpiperidin-4-yl)phenyl)acetamide)] was below 100 nM; that for `O=C(Cc1cccc(OC(F)(F)F)c1)Nc1nnc([C@H]2CCC[C@H](c3nnc(NC(=O)Cc4ccccn4)s3)C2)s1` [Compound 364, 2-(pyridin-2-yl)-N-(5-((1S,3S)-3-(5-(2-(3-(trifluoromethoxy)phenyl)acetamido)-1,3,4-thiadiazol-2-yl)cyclohexyl)-1,3,4-thiadiazol-2-yl)acetamide] was below 100 nM. In turn, `CCC(=O)Nc1nnc([C@H]2CCC[C@H](c3nnc(NC(=O)CC)s3)C2)s1` [Compound 40, N,N′-(5,5′-((1S,3S)-cyclohexane-1,3-diyl)bis(1,3,4-thiadiazole-5,2-diyl))dipropionamide] displayed an IC50 of 100 to 500 nM.

Regarding `Cc1cccc(CC(=O)Nc2nnc([C@H]3CCC[C@H](c4nnc(NC(=O)Cc5cccc(C)c5)s4)C3)s2)c1` [Compound 111, N,N′-(5,5′-((1S,3S)-cyclohexane-1,3-diyl)bis(1,3,4-thiadiazole-5,2-diyl))bis(2-m-tolylacetamide)], the concentration for half-maximal inhibition (IC50) lay in the range of 100 to 500 nM. The compound `COCCOc1ccnc(CC(=O)Nc2nnc([C@H]3CCC[C@H](c4nnc(NC(=O)Cc5cc(OCCOC)ccn5)s4)C3)s2)c1` [Compound 353] had an IC50 below 100 nM.

As for `COc1cccc(CC(=O)Nc2nnc([C@H]3CCC[C@H](c4nnc(NC(=O)Cc5cccc(OC)c5)s4)C3)s2)c1` (single isomer, unassigned) [Compound 71], the IC50 was below 100 nM.

`COc1cccc(CC(=O)Nc2nnc([C@H]3CCC[C@H](c4nnc(NC(=O)Cc5cccc(OC)n5)s4)C3)s2)n1` (single isomer, unassigned) [Compound 84]: the IC50 is below 100 nM. With `O=C(Cc1cc(OC(F)F)ccn1)Nc1nnc([C@H]2CCC[C@H](c3nnc(NC(=O)Cc4cc(OC(F)F)ccn4)s3)C2)s1` [Compound 356, N,N′-(5,5′-((1S,3S)-cyclohexane-1,3-diyl)bis(1,3,4-thiadiazole-5,2-diyl))bis(2-(4-(difluoromethoxy)pyridin-2-yl)acetamide)] the figure was below 100 nM. With `O=C(Cc1cccc(N2CC(F)(F)C2)n1)Nc1nnc([C@H]2CCC[C@H](c3nnc(NC(=O)[C@@H](O)c4ccccc4)s3)C2)s1` [Compound 387, (S)—N-(5-((1S,3S)-3-(5-(2-(6-(3,3-difluoroazetidin-1-yl)pyridin-2-yl)acetamido)-1,3,4-thiadiazol-2-yl)cyclohexyl)-1,3,4-thiadiazol-2-yl)-2-hydroxy-2-phenylacetamide] the figure was below 100 nM; with `COc1cccc(CC(=O)Nc2nnc([C@H]3CCC[C@H](c4nnc(NC(=O)Cc5cccc(OC)c5OC)s4)C3)s2)c1OC` [Compound 112, N,N′-(5,5′-((1S,3S)-cyclohexane-1,3-diyl)bis(1,3,4-thiadiazole-5,2-diyl))bis(2-(2,3-dimethoxyphenyl)acetamide)], below 100 nM; with `O=C(Cc1cccc(OC(F)(F)F)c1)Nc1nnc([C@H]2CCC[C@H](c3nnc(NC(=O)[C@H](O)c4ccccc4)s3)C2)s1` [Compound 365, (R)-2-hydroxy-2-phenyl-N-(5-((1S,3S)-3-(5-(2-(3-(trifluoromethoxy)phenyl)acetamido)-1,3,4-thiadiazol-2-yl)cyclohexyl)-1,3,4-thiadiazol-2-yl)acetamide], below 100 nM. With `N#Cc1ccccc1CC(=O)Nc1nnc([C@H]2CCC[C@H](c3nnc(NC(=O)Cc4ccccc4C#N)s3)C2)s1` [Compound 72, N,N′-(5,5′-((1S,3S)-cyclohexane-1,3-diyl)bis(1,3,4-thiadiazole-5,2-diyl))bis(2-(2-cyanophenyl)acetamide)] the figure was below 100 nM; with `O=C(Cc1c(F)cccc1F)Nc1nnc([C@H]2CCC[C@H](c3nnc(NC(=O)Cc4c(F)cccc4F)s3)C2)s1` [Compound 89], 100 to 500 nM.

Compound `O=C(CCc1ccccn1)Nc1nnc([C@H]2CCC[C@H](c3nnc(NC(=O)CCc4ccccn4)s3)C2)s1` [Compound 80, N,N′-(5,5′-((1S,3S)-cyclohexane-1,3-diyl)bis(1,3,4-thiadiazole-5,2-diyl))bis(3-(pyridin-2-yl)propanamide)] registered an IC50 of 100 to 500 nM. The value for `COc1ccc(CC(=O)Nc2nnc([C@H]3CC[C@H](c4nnc(NC(=O)Cc5cccc(N6CC(F)(F)C6)n5)s4)C3)s2)cn1` [Compound 358] was below 100 nM; that for `O=C(Cc1cc2ccccc2[nH]1)Nc1nnc([C@H]2CCC[C@H](c3nnc(NC(=O)Cc4cc5ccccc5[nH]4)s3)C2)s1` [Compound 34] was 100 to 500 nM; that for `O=C(Cc1ccncc1)Nc1nnc([C@H]2CCC[C@H](c3nnc(NC(=O)Cc4ccncc4)s3)C2)s1` [Compound 29, N,N′-(5,5′-((1S,3S)-cyclohexane-1,3-diyl)bis(1,3,4-thiadiazole-5,2-diyl))bis(2-(pyridin-4-yl)acetamide)] was below 100 nM. Turning to `O=C(Cc1ccccn1)Nc1nnc([C@H]2CCC[C@H](c3nnc(NC(=O)Cc4ccccn4)s3)C2)s1` (single isomer, unassigned) [Compound 14], the IC50 is below 100 nM.

`O=C(Cc1ccc(Cl)cc1)Nc1nnc([C@H]2CCC[C@H](c3nnc(NC(=O)Cc4ccc(Cl)cc4)s3)C2)s1` [Compound 50] returned an IC50 of 100 to 500 nM.

In turn, `N#Cc1cccnc1CC(=O)Nc1nnc([C@H]2CCC[C@H](c3nnc(NC(=O)Cc4ncccc4C#N)s3)C2)s1` (relative stereo) [Compound 113, N,N′-(5,5′-(trans-cyclohexane-1,3-diyl)bis(1,3,4-thiadiazole-5,2-diyl))bis(2-(3-cyanopyridin-2-yl)acetamide)] showed an IC50 below 100 nM. With `O=C(Cc1csc(N2CC(F)(F)C2)n1)Nc1nnc([C@H]2CCC[C@H](c3nnc(NC(=O)Cc4csc(N5CC(F)(F)C5)n4)s3)C2)s1` [Compound 336] the figure was below 100 nM; with `O=C(Cc1cccc(OC(F)(F)F)c1)Nc1nnc([C@H]2CC[C@H](c3nnc(NC(=O)Cc4cccc(N5CC(F)(F)C5)n4)s3)C2)s1` [Compound 373], below 100 nM. The value for `O=C(Cc1ccccc1Cl)Nc1nnc([C@H]2CCC[C@H](c3nnc(NC(=O)Cc4ccccc4Cl)s3)C2)s1` [Compound 51, N,N′-(5,5′-((1S,3S)-cyclohexane-1,3-diyl)bis(1,3,4-thiadiazole-5,2-diyl))bis(2-(2-chlorophenyl)acetamide)] was 100 to 500 nM; that for `O=C(Cc1nccs1)Nc1nnc([C@H]2CCC[C@H](c3nnc(NC(=O)Cc4nccs4)s3)C2)s1` [Compound 100] was below 100 nM.

`O=C(Cc1cccc(N2CC(F)(F)C2)n1)Nc1nnc([C@H]2CCC[C@H](c3nnc(NC(=O)[C@H](O)c4ccccc4)s3)C2)s1` [Compound 369] gave an IC50 below 100 nM.

`O=C(Cc1cccc(Cl)c1)Nc1nnc([C@H]2CCC[C@H](c3nnc(NC(=O)Cc4cccc(Cl)c4)s3)C2)s1` [Compound 43, N,N′-(5,5′-((1S,3S)-cyclohexane-1,3-diyl)bis(1,3,4-thiadiazole-5,2-diyl))bis(2-(3-chlorophenyl)acetamide)] returned an IC50 of 100 to 500 nM.
